# Data from patent US5192668A, “Synthesis of protease inhibitor” (Merck & Co., Inc., priority 1992, dated 1993).
# Molecular target: T1, HIV protease (Human immunodeficiency virus type 1 group M subtype B, UniProt P12497)
# T1 construct: HIV protease expressed in Escherichia coli; made in house; host or cells: Escherichia coli
# Experiment: Assay for Inhibition of Recombinant HIV Protease (APRIN 2.1)
# Type: biochemical
# Conditions: Conc. 1 ng/ml; read-out: APRIN 2.1 Act. (% Inhib.)
# Experimental: Assay for Inhibition of Recombinant HIV Protease (APRIN 2.1)
# Inhibition studies were performed on the reaction of the HIV protease expressed in Escherichia coli with a tritiated peptide substrate, [^3 H]-acetyl-Val-Ser-Gln-Asn-(beta-napthyl-Ala)-Pro-Ile-Val-Gln-Gly-Arg -Arg-NH2 (MW 1800). The two arginine residues at the carboxyl terminus give this peptide an overall positive charge at acidic pH and enable it to bind to the H^+ form of DOWEX AG-50W-X8 resin and similar resins.
# Aliquots of 25 μl containing 6.0-8.0 nM HIV protease in assay buffer (100 mM sodium acetate, pH 5.5 and 0.1% BSA) are placed in assay tubes. The reaction is initiated by addition of 25 μl aliquots of 4.2 μM tritiated peptide substrate in 100 mM sodium acetate, pH 5.5. After incubation for 60 min at 37° C., the reaction is stopped with 100 μl of 5% H3 PO4, then analysed by application of column chromatography.
structure (smiles),measurement,value
"CC(C)(C)OC(=O)N[C@@H](Cc1ccccc1)[C@@H](O)C[C@@H](Cc1ccc(OCC(=O)O)cc1)C(=O)N[C@H]1c2ccccc2C[C@H]1O [L-694,746]",inhibition at 0.001 µg/mL,88%
